This is an account of results in ChEMBL document CHEMBL1201862, “PubChem BioAssay data set” (2004).

Experiment in all cases: growth of human tumour cells (NCI), 48 h
For experiment [1], the system named is ACHN.
The test system of experiment [2] is SF-539.
The subject of experiment [3] is M14.
Experiment [4] deals with NCI-H23.
In experiment [5] the test system is NCI-H460.
In experiment [6] the test system is Hs-578T.
Experiment [7] relates to DU-145.
In experiment [8] the test system is PC-3.
Experiment [9] concerns A498.
The subject of experiment [10] is SK-MEL-5.
Experiment [11] has as its system HCT-15.
The test system of experiment [12] is MDA-MB-231.
Experiment [13] concerns HCC 2998.
Experiment [14] deals with RPMI-8226.
For experiment [15], the system named is BT-549.
Experiment [16] has as its system RXF 393.
For experiment [17], the system named is OVCAR-3.
Experiment [18] has as its system K562.
Experiment [19] deals with TK-10.
In experiment [20] the test system is HOP-92.

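Assay format: 96-well plates, 48-hour exposure. GI50 = concentration required for 50% inhibition of growth.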 Activity calls are given as the source filed them. No stated cut-off is given here; in the data, active = GI50 up to about 1.1 µM and inactive = higher.

Regarding `CCOC(=O)C12OC(CCC1=O)C(C(=O)OC)=C2C(=O)OC` (centres undefined), the GI50 in experiment [1], in experiment [2], in [3], in experiment [4], in experiment [5] and in [6] was > 10 µM (inactive) throughout. In addition, the GI50 was > 10 µM (inactive) in experiment [7]; > 10 µM (inactive) in [8]; > 10 µM (inactive) in experiment [9]; > 10 µM (inactive) in [10]; greater than 10 µM in experiment [11]; > 10 µM (inactive) in experiment [12]. In addition, the GI50 in experiment [13], in experiment [14], in experiment [15], in experiment [16], in [17] and in experiment [18] was > 10 µM (inactive) in each case. Besides, the GI50 in [19] is > 10 µM (inactive).

In the case of `CC1=NN(C2=NS(=O)(=O)c3ccccc3N2C)C(=O)C1`, the GI50 in experiment [1], in experiment [2], in experiment [20], in experiment [3], in experiment [4] and in experiment [5] was > 100 µM (inactive) in each case. In addition, the GI50 is > 100 µM (inactive) in [6]; > 100 µM (inactive) in experiment [7]; > 100 µM (inactive) in experiment [8]; 50.8 µM (inactive) in [9]; > 100 µM (inactive) in experiment [10]; greater than 100 µM in [11]. Besides, the GI50 in experiment [12], in experiment [13], in experiment [15], in [16], in [17] and in [18] was > 100 µM (inactive) each time. Moreover, the GI50 in experiment [19] was > 100 µM (inactive).

With `COc1ccc(/C=C2\CCC(CNc3ccc(OC)cc3)C2=O)cc1` (centres undefined), the GI50 in [1] was 18.7 µM (inactive); in [2], 20.4 µM (inactive); in [20], 18.9 µM (inactive); in experiment [3] it was 16.1 µM (inactive); in experiment [4] it was 14.6 µM (inactive); in experiment [5], 47.8 µM (inactive). The GI50 in experiment [6] was 35.4 µM (inactive); in experiment [7], 39.1 µM (inactive); in experiment [8] it was 16.8 µM (inactive); in experiment [9] it was 30.1 µM (inactive); in experiment [10] it was 19 µM (inactive); in experiment [11], 6.78 µM. Also, the GI50 in experiment [12] was 17.8 µM (inactive); in experiment [13] it was 21.2 µM (inactive); in experiment [15], 13.7 µM (inactive); in experiment [16], 16.2 µM (inactive); in [17] it was 17.4 µM (inactive); in experiment [19], 15.6 µM (inactive).

Consider `Cc1c2c(n3c(nc4ccccc43)c1C#N)N(c1ccc(Cl)cc1)CC2`, for which the GI50 in [1], in [2], in experiment [20], in experiment [3], in [4] and in experiment [5] was > 100 µM (inactive) throughout. Further, the GI50 in experiment [6] is > 100 µM (inactive); in [7], > 100 µM (inactive); in experiment [8] it was > 100 µM (inactive); in [9] it was > 100 µM (inactive); in [10], > 100 µM (inactive); in [11], greater than 100 µM. Moreover, the GI50 in [12], in [13], in experiment [15], in [16], in [17] and in experiment [18] was > 100 µM (inactive) each time. For the same compound, the GI50 in experiment [19] was > 100 µM (inactive).

For the compound `O=C(O)C12C3CCC(CC3)C1(C(=O)O)C1CCC2C1` (centres undefined), the GI50 in experiment [1], in [2], in experiment [3], in experiment [4], in experiment [5] and in experiment [6] was > 100 µM (inactive) throughout. The GI50 in experiment [7] is > 100 µM (inactive); in experiment [8], > 100 µM (inactive); in [9] it was > 100 µM (inactive); in [10], > 100 µM (inactive); in experiment [11], greater than 100 µM; in experiment [12], > 100 µM (inactive). Moreover, the GI50 in experiment [13], in experiment [14], in experiment [15], in experiment [16], in experiment [17] and in [18] was > 100 µM (inactive) in each case. The GI50 in [19] is > 100 µM (inactive).

On to `CC(C)(C)CN1[C@@H]2CCCC[C@H]2N(CC(C)(C)C)P1(=O)C(O)/C=C/c1ccccc1` (some centres undefined), for which the GI50 in experiment [1] is 28.9 µM (inactive); in experiment [20] it was 28.8 µM (inactive); in experiment [3] it was 27.1 µM (inactive); in experiment [4], 56.6 µM (inactive); in [5], 26.2 µM (inactive); in experiment [6], 29.9 µM (inactive). Moreover, the GI50 was 58.1 µM (inactive) in experiment [7]; 37.8 µM (inactive) in experiment [8]; 28.6 µM (inactive) in experiment [9]; 18.3 µM (inactive) in experiment [10]; 18.5 µM in experiment [11]; 45.9 µM (inactive) in experiment [12]. Further, the GI50 was 28.5 µM (inactive) in [13]; 19.5 µM (inactive) in [14]; 74.1 µM (inactive) in experiment [15]; 30.3 µM (inactive) in experiment [16]; 34.6 µM (inactive) in experiment [17]; 42.6 µM (inactive) in experiment [18]. In experiment [19], the GI50 is 50.4 µM (inactive).

As to `O=C1c2ccccc2-c2[nH]c3cn[nH]c(=O)c3c21`, the GI50 was 85.9 µM (inactive) in experiment [1]; > 100 µM (inactive) in experiment [2]; 16.4 µM (inactive) in experiment [20]; > 100 µM (inactive) in experiment [3]; > 100 µM (inactive) in experiment [4]; 64.9 µM (inactive) in [5]. The GI50 in experiment [6] was 64.9 µM (inactive); in experiment [7], > 100 µM (inactive); in experiment [8] it was > 100 µM (inactive); in [9], 33.5 µM (inactive); in experiment [10], > 100 µM (inactive); in [11] it was 82.6 µM. Further, the GI50 in [12] is 97.5 µM (inactive); in [14], 92.9 µM (inactive); in experiment [15], > 100 µM (inactive); in experiment [17], > 100 µM (inactive); in experiment [18], 61.2 µM (inactive); in [19], > 100 µM (inactive).

Take `Nc1ccc(OCCCc2c(-c3ccccc3)[nH]c(N)nc2=O)cc1`: the GI50 in experiment [1] is 33.9 µM (inactive); in experiment [2] it was 28.1 µM (inactive); in experiment [3], 32.5 µM (inactive); in experiment [4] it was 47.2 µM (inactive); in experiment [5], 24.6 µM (inactive); in [6], 12.3 µM (inactive). Further, the GI50 in experiment [7] was 48.2 µM (inactive); in [8], 41.7 µM (inactive); in [9] it was 16.9 µM (inactive); in [10], 41.1 µM (inactive); in experiment [11], greater than 100 µM; in experiment [12] it was 29.9 µM (inactive). The GI50 in experiment [13] was 22.8 µM (inactive); in experiment [14], 84.9 µM (inactive); in experiment [15], 22.5 µM (inactive); in [16], 63.8 µM (inactive); in experiment [17], 25.2 µM (inactive); in experiment [18] it was 74.5 µM (inactive).

As to `CCOC(=O)C(CS)NC(=O)CCCCCCCC(=O)NC(CS)C(=O)OCC` (centres undefined), the GI50 in experiment [1], in experiment [2], in experiment [20], in experiment [3], in [4] and in [5] was > 100 µM (inactive) throughout. Also, the GI50 in [6] was > 100 µM (inactive); in experiment [7], > 100 µM (inactive); in experiment [8], > 100 µM (inactive); in [9], > 100 µM (inactive); in experiment [10], > 100 µM (inactive); in [11] it was greater than 100 µM. The GI50 in experiment [12], in [13], in [14], in experiment [15], in [17] and in experiment [18] was > 100 µM (inactive) in each case. Also, the GI50 in experiment [19] is > 100 µM (inactive).

On to `CON(C)C(=O)[C@H]1C[C@@]1(C)CO`, for which the GI50 in experiment [1], in [20], in experiment [3], in experiment [4], in experiment [5] and in experiment [6] was > 100 µM (inactive) each time. The GI50 in [7] was > 100 µM (inactive); in experiment [8] it was > 100 µM (inactive); in experiment [9], > 100 µM (inactive); in experiment [10], > 100 µM (inactive); in experiment [11], greater than 100 µM; in experiment [12], > 100 µM (inactive). Also, the GI50 in [13], in experiment [15], in experiment [16], in [17], in experiment [18] and in experiment [19] was > 100 µM (inactive) each time.

Turning to `O=C(O)Cc1ccc2c(c1)/C(=C1/Nc3ccccc3C1=O)C(=O)N2`, the GI50 in experiment [1] was 32.5 µM (inactive); in [3], 36.6 µM (inactive); in [4], 39.6 µM (inactive); in [5] it was 56.2 µM (inactive); in experiment [6], 27.8 µM (inactive); in experiment [7] it was 49.9 µM (inactive). For the same compound, the GI50 in experiment [8] was 28.6 µM (inactive); in experiment [9], 31.7 µM (inactive); in experiment [10], 20.7 µM (inactive); in [11], 27.6 µM; in [12], > 100 µM (inactive); in experiment [13], 36.5 µM (inactive). The GI50 is 27.9 µM (inactive) in experiment [14]; 44.5 µM (inactive) in experiment [15]; 17.2 µM (inactive) in [16]; 14.1 µM (inactive) in [17]; 19.2 µM (inactive) in experiment [18]; > 100 µM (inactive) in [19].
